SMILES strings stand for the structures.

The values that follow come from paper PMC7261929, “A New Family of Jumonji C Domain-Containing KDM Inhibitors Inspired by Natural Product Purpurogallin” (Frontiers in Chemistry, 2020).

Holding throughout (format): biochemical
The target of assay [1] is T1, KDM4A (Homo sapiens, UniProt O75164).
T1 sequence (O75164 2-1064): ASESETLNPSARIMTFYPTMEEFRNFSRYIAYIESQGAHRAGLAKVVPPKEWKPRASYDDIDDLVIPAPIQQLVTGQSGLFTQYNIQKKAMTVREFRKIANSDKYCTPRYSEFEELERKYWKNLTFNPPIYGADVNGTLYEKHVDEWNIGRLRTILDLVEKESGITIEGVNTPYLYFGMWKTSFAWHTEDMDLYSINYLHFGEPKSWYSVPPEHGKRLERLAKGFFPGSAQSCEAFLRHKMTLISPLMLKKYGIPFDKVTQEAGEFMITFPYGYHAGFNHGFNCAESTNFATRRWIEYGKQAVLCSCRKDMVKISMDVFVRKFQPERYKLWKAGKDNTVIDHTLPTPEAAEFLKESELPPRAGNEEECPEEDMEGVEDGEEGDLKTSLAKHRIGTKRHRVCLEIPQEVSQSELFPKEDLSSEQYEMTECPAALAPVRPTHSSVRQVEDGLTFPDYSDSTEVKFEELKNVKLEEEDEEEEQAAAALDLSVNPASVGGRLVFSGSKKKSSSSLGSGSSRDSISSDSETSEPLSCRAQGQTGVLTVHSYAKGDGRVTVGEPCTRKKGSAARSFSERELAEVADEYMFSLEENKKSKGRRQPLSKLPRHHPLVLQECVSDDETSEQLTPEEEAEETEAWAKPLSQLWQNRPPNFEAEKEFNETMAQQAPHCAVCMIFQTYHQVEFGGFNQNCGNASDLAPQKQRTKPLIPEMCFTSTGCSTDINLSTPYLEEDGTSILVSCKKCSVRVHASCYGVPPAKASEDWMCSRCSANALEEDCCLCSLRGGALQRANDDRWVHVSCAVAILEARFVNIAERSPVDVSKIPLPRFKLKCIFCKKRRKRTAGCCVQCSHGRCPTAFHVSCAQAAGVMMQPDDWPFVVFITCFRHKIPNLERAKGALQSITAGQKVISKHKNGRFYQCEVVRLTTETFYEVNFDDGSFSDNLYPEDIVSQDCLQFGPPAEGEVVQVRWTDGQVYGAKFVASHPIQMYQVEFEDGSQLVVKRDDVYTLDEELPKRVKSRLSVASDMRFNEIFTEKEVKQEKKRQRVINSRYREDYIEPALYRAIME
As to the kind of experiment: fluorescence demethylase enzymatic assay, single dose […].

Another assay deals with T2, KDM4C (Homo sapiens, UniProt Q9H3R0).
T2 construct: KDM4C-GST recombinant enzyme
T2 sequence (Q9H3R0 1-1056): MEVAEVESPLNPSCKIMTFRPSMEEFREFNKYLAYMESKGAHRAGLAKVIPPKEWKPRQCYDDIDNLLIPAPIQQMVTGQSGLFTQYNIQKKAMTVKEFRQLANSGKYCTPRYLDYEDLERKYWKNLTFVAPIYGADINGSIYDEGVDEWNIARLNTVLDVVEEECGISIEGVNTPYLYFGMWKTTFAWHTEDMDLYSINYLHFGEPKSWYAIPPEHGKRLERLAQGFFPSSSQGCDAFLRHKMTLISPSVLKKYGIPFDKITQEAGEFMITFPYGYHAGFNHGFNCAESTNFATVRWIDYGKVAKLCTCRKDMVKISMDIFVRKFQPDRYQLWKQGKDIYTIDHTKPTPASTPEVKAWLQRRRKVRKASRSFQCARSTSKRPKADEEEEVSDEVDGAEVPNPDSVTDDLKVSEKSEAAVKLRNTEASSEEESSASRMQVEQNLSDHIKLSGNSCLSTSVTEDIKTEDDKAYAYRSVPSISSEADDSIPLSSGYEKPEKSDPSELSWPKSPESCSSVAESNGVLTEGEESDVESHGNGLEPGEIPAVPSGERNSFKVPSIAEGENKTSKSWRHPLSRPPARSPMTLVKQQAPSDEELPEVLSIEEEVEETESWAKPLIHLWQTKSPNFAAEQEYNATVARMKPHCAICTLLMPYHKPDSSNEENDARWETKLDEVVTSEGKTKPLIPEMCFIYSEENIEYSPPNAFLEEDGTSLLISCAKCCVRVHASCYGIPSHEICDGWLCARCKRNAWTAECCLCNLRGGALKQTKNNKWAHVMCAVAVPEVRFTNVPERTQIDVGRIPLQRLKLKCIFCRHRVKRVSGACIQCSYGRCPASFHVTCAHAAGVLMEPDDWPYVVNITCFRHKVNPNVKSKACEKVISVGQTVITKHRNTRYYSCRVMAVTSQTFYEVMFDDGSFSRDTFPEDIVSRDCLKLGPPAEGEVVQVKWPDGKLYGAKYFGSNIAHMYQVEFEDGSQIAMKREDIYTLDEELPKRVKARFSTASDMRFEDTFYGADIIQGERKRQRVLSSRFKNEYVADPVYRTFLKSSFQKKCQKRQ
As to the kind of experiment: fluorescence demethylase enzymatic assay, dose curve.

The target of assay [2] is T1, KDM4A. As to the kind of experiment: AlphaLISA JMJD2A homogeneous demethylase assay, […] concentrations (fluorescence assay gave IC50 […]). (In general: Alpha assays give light when donor and acceptor beads are brought close together.)
In a further assay the target is T3, KDM4B (Homo sapiens, UniProt O94953).
T3 construct: KDM4B-GST recombinant enzyme
T3 sequence (O94953 1-1096): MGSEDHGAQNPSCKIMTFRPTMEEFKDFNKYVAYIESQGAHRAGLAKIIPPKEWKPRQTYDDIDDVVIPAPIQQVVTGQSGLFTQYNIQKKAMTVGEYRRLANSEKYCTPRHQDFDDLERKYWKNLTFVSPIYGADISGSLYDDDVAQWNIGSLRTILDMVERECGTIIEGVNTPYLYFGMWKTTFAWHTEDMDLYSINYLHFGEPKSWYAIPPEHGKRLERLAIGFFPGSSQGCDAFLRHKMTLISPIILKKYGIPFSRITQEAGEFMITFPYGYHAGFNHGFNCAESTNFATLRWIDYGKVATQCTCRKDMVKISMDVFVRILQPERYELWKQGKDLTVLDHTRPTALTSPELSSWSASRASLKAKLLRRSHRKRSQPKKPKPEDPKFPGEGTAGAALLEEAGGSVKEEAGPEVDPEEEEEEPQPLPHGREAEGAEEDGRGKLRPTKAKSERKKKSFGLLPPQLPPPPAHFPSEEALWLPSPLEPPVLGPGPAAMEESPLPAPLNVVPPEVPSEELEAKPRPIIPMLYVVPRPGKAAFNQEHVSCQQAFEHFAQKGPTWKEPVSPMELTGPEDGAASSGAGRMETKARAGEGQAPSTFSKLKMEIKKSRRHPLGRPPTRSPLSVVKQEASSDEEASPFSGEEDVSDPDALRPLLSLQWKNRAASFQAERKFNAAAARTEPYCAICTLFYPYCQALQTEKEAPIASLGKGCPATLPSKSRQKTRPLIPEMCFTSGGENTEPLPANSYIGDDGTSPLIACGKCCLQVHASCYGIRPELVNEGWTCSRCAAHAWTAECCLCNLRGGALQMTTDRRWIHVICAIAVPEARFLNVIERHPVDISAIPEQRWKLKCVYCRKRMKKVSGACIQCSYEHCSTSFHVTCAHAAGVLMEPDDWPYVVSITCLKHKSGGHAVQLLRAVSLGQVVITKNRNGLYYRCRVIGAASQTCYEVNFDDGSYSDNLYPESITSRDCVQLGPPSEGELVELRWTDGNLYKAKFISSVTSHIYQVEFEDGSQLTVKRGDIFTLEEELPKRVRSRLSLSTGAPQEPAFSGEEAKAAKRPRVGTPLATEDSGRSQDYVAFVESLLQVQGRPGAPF
As to the kind of experiment: fluorescence demethylase enzymatic assay, dose curve.

A further assay deals with T4, KDM4D (Homo sapiens, UniProt Q6B0I6).
T4 construct: KDM4D-GST recombinant enzyme
T4 sequence (Q6B0I6 1-523): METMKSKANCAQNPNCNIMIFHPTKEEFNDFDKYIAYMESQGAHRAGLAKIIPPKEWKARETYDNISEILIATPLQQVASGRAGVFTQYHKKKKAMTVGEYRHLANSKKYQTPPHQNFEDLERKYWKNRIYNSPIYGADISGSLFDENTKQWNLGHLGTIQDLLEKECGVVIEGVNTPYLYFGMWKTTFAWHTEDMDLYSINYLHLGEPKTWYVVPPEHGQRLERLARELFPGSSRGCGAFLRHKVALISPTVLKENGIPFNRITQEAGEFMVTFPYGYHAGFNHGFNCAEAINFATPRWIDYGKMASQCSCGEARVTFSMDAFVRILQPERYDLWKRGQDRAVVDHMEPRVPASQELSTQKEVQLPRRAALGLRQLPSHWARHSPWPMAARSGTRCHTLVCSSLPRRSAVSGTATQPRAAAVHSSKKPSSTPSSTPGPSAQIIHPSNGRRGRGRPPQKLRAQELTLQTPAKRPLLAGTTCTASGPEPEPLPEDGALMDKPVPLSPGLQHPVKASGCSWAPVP
The description is as above.

Assay [3] concerns the target T1, KDM4A. As to the kind of experiment: KDM4A enzymatic screening assay and fluorescence assay at […].

By inhibition is commonly meant the share of the control response that was lost under treatment. For the compound `O=C(O)c1cc(O)c(=O)c2c(O)c(O)cc(Br)c2c1` [9bc, 1-bromo-3,4,6-trihydroxy-5-oxo-5H-benzo[7]annulene-8-carboxylic acid], at KDM4A [1], at 50 µM the inhibition was 80%.

In the case of `O=c1c(O)cccc2c(Br)cc(O)c(O)c12` [9ac, 1-bromo-3,4,6-trihydroxy-5H-benzo[7]annulen-5-one], on KDM4A [1], testing at 50 µM gave an inhibition of 50%.

For orientation: IC50 means the concentration that inhibits the measured activity by half. Higher therefore signals weaker potency. For `O=C(O)c1cc(O)c(=O)c2c(O)c(O)cc(-c3ccccc3)c2c1` [9bf, 3,4,6-trihydroxy-5-oxo-1-phenyl-5H-benzo[7]annulene-8-carboxylic acid], the IC50 against KDM4C turned out to be 38.9 µM; against KDM4A [2] it was 10.1 µM; at KDM4B it was 35.9 µM; against KDM4D, 28.5 µM. Regarding `O=c1c(O)cccc2cc(O)c(O)c(O)c12` [9aa, 2,3,4,6-tetrahydroxy-5H-benzo[7]annulen-5-one], on KDM4A [3], the “KDM4A enzymatic screening assay and fluorescence assay at 50 μM” value is listed as “Purpurogallin 9aa”.
